Results as given in publication PMC10002956, “Tumour suppressor PTEN activity is differentially inducible by myo‐inositol phosphates” (Journal of Cellular and Molecular Medicine, 2023).

Legend:
[1] = target: T1, PTEN (phosphatase and tensin homologue deleted on Chromosome 10) (Homo sapiens, UniProt P60484); assay: SPR, PTEN immobilised on CM5 chip, Biacore T200, […] Langmuir with mass transport; format: binding; settings: 25 °C, HBS; PIP3 25-400 μM; acyl chains of PIP3 not told
T1 construct: commercial recombinant PTEN; immobilised on CM5 chip for SPR

[2] = target: T1, PTEN (phosphatase and tensin homologue deleted on Chromosome 10); assay: malachite green phosphate release from PIP3; format: biochemical; settings: PIP3 200 μM, PTEN 50 μM, IHP 2.5-40 mM; Tris-HCl pH 7.5, 10 mM DTT, 37 °C

T1 sequence (P60484 2-403): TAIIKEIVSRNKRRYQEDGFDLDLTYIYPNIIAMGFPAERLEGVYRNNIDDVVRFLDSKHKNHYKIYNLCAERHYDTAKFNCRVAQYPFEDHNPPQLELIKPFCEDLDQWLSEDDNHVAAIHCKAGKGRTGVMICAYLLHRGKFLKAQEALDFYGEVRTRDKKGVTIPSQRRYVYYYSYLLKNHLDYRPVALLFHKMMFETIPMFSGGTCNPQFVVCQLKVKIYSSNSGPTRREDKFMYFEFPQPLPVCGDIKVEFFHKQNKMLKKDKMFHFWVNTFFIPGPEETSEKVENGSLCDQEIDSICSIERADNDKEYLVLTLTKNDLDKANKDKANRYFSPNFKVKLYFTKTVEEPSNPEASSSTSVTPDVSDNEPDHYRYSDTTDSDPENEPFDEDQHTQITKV

K D [1] | Molecule | malachite green phosphate release from PIP3 [2]
~ 2.5 micromoles | PIP3 | 
 | O=P(O)(O)O[C@H]1[C@H](OP(=O)(O)O)[C@@H](OP(=O)(O)O)[C@H](OP(=O)(O)O)[C@@H](OP(=O)(O)O)[C@H]1OP(=O)(O)O [IHP] | IHP inhibits hydrolysis in a concentration‐dependent manner
